Laboratory results from patent US20240336574A1 (LATIGO BIOTHERAPEUTICS, INC., priority 2021, published 2024).
Like-named read-outs stand apart in the source and are kept apart here.

Molecular target: T1, recombinant human NaV1.8 stably transfected HEK cells (Homo sapiens, UniProt Q9Y5Y9)
T1 construct: expressed in transfected cells; host or cells: HEK cells, stably transfected
Assay: Compound profiling on NaV1.8, human NaV1.8 cell line, SyncroPatch384PE automated patch clamp assay (Example 102, first set of compounds, Table 16)
Format: cell-based
Settings: human NaV1.8 HEK cells, Table 16 (first set of compounds)
Experimental: Compound Profiling on NaV1.8—Human NaV1.8 Cell Line—SyncroPatch384PE Assay
Compounds were tested on recombinant human NaV1.8 stably transfected HEK cells using the SyncroPatch384PE system, an automated patch clamp device. Cells were cultured at 37° C./5% CO2 in DMEM medium supplemented with GlutaMAX I, NEAA 1%, FBS 10% and seeded in T175 flasks. Cells were cultured at 30° C. one day prior to recording sodium currents. On the day of the recordings, cells were detached with 0.05% Trypsin-EDTA, resuspended in serum free DMEM medium and placed into the SyncroPatch384PE 6° C. pre-cooled cell hotel and shaken at 200 rpm. Intracellular solution (IC) contained, in mM: 10, CsCl; 110, CsF; 20, EGTA; 10, HEPES. Extracellular solution (EC) contained, in mM: 140, NaCl; 4, KCl; 5, Glucose; 10, HEPES; 2, CaCl2; 1, MgCl2. Washing solution contained, in mM: 40, NMDG; 100, NaCl; 4, KCl; 10, Glucose; 10, HEPES; 5, CaCl2; 1, MgCl2.
Compounds were tested in triplicate in 0.1% DMSO and 0.030% Pluronic Acid. Compounds were diluted 1:3 in EC solution to create a 10-point concentration response curve, spanning a final concentration range from 20-0.001 μM in the assay plate. Each plate contained tetracaine and another tool compound as positive controls. Up to 8 compounds were tested on one plate. 250 μM tetracaine and 0.1% DMSO were used as high and low controls, respectively. Whole cell patch clamp recordings were conducted according to Nanion's standard procedure for SyncroPatch384PE®. Cells were held at a holding potential of −120 mV. A depolarization step to 10 mV for 30 ms was applied (P1 measurement), followed by a hyperpolarization step to −100 mV for 100 ms. An inactivation step at −40 mV for 10 sec was applied before stepping to −100 mV for 20 ms, followed by a step to 10 mV for 30 ms (P2 measurement) and then back to −100 mV for 30 ms. Sweep interval was 15 sec with a sampling rate of 10 kHz. Following establishment of the whole-cell configuration in EC, two washing steps with reference buffer were performed to stabilize the baseline. Compounds were then applied by the SynchroPatch into each well and the current was recorded for five minutes in EC, followed by application of tetracaine to achieve full block at the end of the experiment. The potency of the compounds was assessed on two read-outs, resting state block (P1 measurement) or inactivated state block (P2 measurement) to obtain IC50 values. Values were normalized to high (tetracaine) and low (DMSO) controls. The IC50 values are listed in Table 16 as follows: “A” represents an IC50 less than or equal to 20 nM, “B” represents an IC50 greater than 20 nM to less than or equal to 40 nM, “C” represents an IC50 greater than 40 nM to less than or equal to 200 nM, “D” represents an IC50 greater than 200 nM to less than or equal to 500 nM.

[1] = inactivated state block (P2 measurement), read-out: P2IC50
[2] = resting state block (P1 measurement), read-out: P1IC50

T1 sequence (Q9Y5Y9 whole entry): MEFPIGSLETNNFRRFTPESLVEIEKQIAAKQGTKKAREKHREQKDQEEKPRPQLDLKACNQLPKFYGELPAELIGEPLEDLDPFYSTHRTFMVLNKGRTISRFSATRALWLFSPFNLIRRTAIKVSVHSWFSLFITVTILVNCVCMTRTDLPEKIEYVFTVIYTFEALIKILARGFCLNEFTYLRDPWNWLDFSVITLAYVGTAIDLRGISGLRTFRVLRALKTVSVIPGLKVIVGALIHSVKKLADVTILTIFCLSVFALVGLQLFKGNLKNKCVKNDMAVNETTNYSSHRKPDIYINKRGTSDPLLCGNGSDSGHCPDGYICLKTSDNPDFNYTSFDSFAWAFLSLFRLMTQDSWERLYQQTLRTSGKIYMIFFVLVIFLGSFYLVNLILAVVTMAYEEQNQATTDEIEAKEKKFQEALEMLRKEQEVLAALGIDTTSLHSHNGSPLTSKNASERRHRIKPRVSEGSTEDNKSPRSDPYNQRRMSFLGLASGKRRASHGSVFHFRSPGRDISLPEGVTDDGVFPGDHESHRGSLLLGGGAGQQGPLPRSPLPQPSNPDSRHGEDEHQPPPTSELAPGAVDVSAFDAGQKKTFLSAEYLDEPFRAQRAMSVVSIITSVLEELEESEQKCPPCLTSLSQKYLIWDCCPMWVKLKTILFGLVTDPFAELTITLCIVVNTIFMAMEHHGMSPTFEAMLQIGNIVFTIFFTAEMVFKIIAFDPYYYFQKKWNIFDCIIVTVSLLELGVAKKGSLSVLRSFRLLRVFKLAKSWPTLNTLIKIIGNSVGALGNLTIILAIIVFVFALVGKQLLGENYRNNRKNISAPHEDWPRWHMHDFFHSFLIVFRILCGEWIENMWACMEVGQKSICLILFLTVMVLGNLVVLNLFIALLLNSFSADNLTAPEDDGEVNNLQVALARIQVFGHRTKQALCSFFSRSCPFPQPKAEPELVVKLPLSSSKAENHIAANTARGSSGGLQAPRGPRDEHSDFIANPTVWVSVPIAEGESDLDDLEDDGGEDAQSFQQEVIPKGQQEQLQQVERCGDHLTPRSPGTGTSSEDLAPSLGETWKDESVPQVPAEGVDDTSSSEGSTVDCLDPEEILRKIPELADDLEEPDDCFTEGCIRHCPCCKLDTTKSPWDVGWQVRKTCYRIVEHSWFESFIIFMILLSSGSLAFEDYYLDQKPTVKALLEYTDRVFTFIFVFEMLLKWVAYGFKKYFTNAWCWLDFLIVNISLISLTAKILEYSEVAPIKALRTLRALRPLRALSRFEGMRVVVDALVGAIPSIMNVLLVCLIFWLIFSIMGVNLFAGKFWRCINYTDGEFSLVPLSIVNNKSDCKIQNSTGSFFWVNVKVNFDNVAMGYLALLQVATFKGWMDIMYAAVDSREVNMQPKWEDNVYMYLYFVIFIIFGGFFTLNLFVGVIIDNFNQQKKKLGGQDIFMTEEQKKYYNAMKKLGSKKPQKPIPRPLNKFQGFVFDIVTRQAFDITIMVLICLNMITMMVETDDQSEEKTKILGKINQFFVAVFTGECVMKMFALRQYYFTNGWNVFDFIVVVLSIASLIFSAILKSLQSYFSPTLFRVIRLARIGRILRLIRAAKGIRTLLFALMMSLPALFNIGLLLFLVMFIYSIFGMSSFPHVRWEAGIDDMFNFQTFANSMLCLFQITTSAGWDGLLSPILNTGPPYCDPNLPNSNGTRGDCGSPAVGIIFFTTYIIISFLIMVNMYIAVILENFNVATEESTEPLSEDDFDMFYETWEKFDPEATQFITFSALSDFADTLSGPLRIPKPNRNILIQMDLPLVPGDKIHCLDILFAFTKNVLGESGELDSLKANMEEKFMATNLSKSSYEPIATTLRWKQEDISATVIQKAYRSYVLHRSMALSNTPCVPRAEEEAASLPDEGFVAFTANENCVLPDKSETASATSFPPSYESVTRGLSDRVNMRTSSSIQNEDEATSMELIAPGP

Compound | IC50 [1] [nM] | IC50 [2] [nM]
COc1cc(C#N)ccc1Oc1nnc(C(F)(F)F)c(C)c1C(=O)Nc1cccc(C(=O)N2CCNCC2)c1 [Compound 1438, 3-(4-cyano-2-methoxy-phenoxy)-5-methyl-N-[3-(piperazine-1-carbonyl)phenyl]-6-(trifluoromethyl)pyridazine-4-carboxamide] | 40 to 200 | 40 to 200
CS(=O)(=O)c1cccc(NC(=O)c2cc(C(F)(F)F)cnc2Oc2ccc(OC(F)(F)F)cc2F)c1 [Compound 1661] | ≤ 20 | ≤ 20
Cc1c(C(F)(F)F)nnc(Oc2ccc(Cl)cc2F)c1C(=O)Nc1cccc(S(C)(=N)=O)c1 (single isomer, unassigned) [Compound 1472, 3-(4-chloro-2-fluoro-phenoxy)-5-methyl-N-[3-(methylsulfonimidoyl)phenyl]-6-(trifluoromethyl)pyridazine-4-carboxamide] |  | ≤ 20
COc1cc(C#N)ccc1Oc1nnc(-c2ccnnc2)c(C)c1C(=O)Nc1cccc(S(C)(=N)=O)c1 (stereo not shown) [Compound 1456, 3-(4-cyano-2-methoxy-phenoxy)-5-methyl-N-[3-(methylsulfonimidoyl)phenyl]-6-pyridazin-4-yl-pyridazine-4-carboxamide] | 200 to 500 | 200 to 500
Cc1nc(F)ccc1Oc1ncc(C(F)(F)F)cc1C(=O)Nc1cccc([S@](C)(=N)=O)c1 (single isomer, unassigned) [Compound 1593] | ≤ 20 | ≤ 20
COc1cc(C#N)ccc1Oc1nnc(C2=CCN(C)CC2)c(C)c1C(=O)Nc1cccc(S(C)(=N)=O)c1 (stereo not shown) [Compound 1555, 3-(4-cyano-2-methoxy-phenoxy)-5-methyl-6-(1-methyl-3,6-dihydro-2H-pyridin-4-yl)-N-[3-(methylsulfonimidoyl)phenyl]pyridazine-4-carboxamide] | 200 to 500 | 200 to 500
COc1c(Oc2ncc(C#N)cc2C(=O)Nc2cccc(C(N)=O)c2)ccc(F)c1F [Compound 1724, N-(3-carbamoylphenyl)-5-cyano-2-(3,4-difluoro-2-methoxy-phenoxy)pyridine-3-carboxamide] | 40 to 200 | 40 to 200
Cc1c(C(F)(F)F)nnc(Oc2ccc(OC(F)(F)F)c(F)c2F)c1C(=O)Nc1cccc(S(C)(=N)=O)c1 (single isomer, unassigned) [Compound 1477, 3-[2,3-difluoro-4-(trifluoromethoxy)phenoxy]-5-methyl-N-[3-(methylsulfonimidoyl)phenyl]-6-(trifluoromethyl)pyridazine-4-carboxamide] | ≤ 20 | ≤ 20
CS(=N)(=O)c1cccc(NC(=O)c2cc(C(F)(F)F)cnc2Oc2cccnc2OC(F)(F)F)c1 (single isomer, unassigned) [Compound 1643] |  | ≤ 20
CS(=O)(=O)c1cccc(NC(=O)c2cc(C(F)(F)F)cnc2OC2CCC(=O)NC2)c1 (stereo not shown) [Compound 1606] | 200 to 500 | 200 to 500
CS(=O)(=O)c1cccc(NC(=O)c2cc(C(F)(F)F)cnc2OC2CCC(F)(F)CC2)c1 [Compound 1660] | 40 to 200 | 40 to 200
CS(=O)(=O)c1cccc(NC(=O)c2cc(C(F)(F)F)cnc2OCC2CCC2(F)F)c1 (stereo not shown) [Compound 1605] | 200 to 500 | 200 to 500
COc1cc(C#N)ccc1Oc1nnc(C(F)(F)F)c(C)c1C(=O)Nc1cncc(C#N)c1 [Compound 1540, 3-(4-cyano-2-methoxy-phenoxy)-N-(5-cyano-3-pyridyl)-5-methyl-6-(trifluoromethyl)pyridazine-4-carboxamide] | 40 to 200 | 40 to 200
Cc1nc(F)ccc1Oc1ncc(C(F)(F)F)cc1C(=O)Nc1cccc([S@@](C)(=N)=O)c1 (single isomer, unassigned) [Compound 1594] | 40 to 200 | 40 to 200
Cc1cc(F)ccc1Oc1nnc(C(F)(F)F)c(C)c1C(=O)Nc1cccc(C(N)=O)c1 [Compound 1406] | 40 to 200 | 40 to 200
N#CC1CC(Oc2ncc(C(F)(F)F)cc2C(=O)Nc2ccc(C(N)=O)cc2)C1 (mixture of isomers) [Compound 1671] | 200 to 500 | 200 to 500
COc1cc(C#N)ccc1Oc1nnc(C2CC2(F)F)c(C)c1C(=O)Nc1cccc([S@@](C)(=N)=O)c1 (stereo partly drawn) [Compound 1528, 3-(4-cyano-2-methoxyphenoxy)-6-(2,2-difluorocyclopropyl)-N-{3-[(S)-imino(methyl)oxo-λ^6-sulfanyl]phenyl}-5-methylpyridazine-4-carboxamide] | 40 to 200 | 40 to 200
CS(=N)(=O)c1cccc(NC(=O)c2cc(C(F)(F)F)cnc2Oc2cccnc2OC(F)(F)F)c1 (single isomer, unassigned) [Compound 1642] | ≤ 20 | ≤ 20
Cc1cc(F)ccc1Oc1nnc(C#N)c(C)c1C(=O)Nc1cccc(S(C)(=N)=O)c1 (stereo not shown) [Compound 1432, 6-cyano-3-(4-fluoro-2-methyl-phenoxy)-5-methyl-N-[3-(methylsulfonimidoyl)phenyl]pyridazine-4-carboxamide] | 200 to 500 | 200 to 500
CS(=O)(=O)c1cccc(NC(=O)c2cc(C(F)(F)F)cnc2Oc2ccc(F)c3cnccc23)c1 [Compound 1583] | 20 to 40 | 20 to 40
Cc1c(Oc2ncc(C(F)(F)F)cc2C(=O)Nc2cccc(S(C)(=N)=O)c2)ccc(OC(F)(F)F)c1F (single isomer, unassigned) [Compound 1714] | ≤ 20 | ≤ 20
CS(=N)(=O)c1cccc(NC(=O)c2cc(C(F)(F)F)cnc2OC23CC(C(F)(F)F)(C2)C3)c1 (stereo not shown) [Compound 1633] | 200 to 500 | 40 to 200
Cc1cc(F)ccc1Oc1nnc(C(F)(F)F)c(N2CCOCC2)c1C(=O)Nc1cccc([S@@](C)(=N)=O)c1 [Compound 1524, (S)-3-(4-fluoro-2-methylphenoxy)-N-(3-(S-methylsulfonimidoyl)phenyl)-5-morpholino-6-(trifluoromethyl)pyridazine-4-carboxamide] | 200 to 500 | 200 to 500
COc1cc(C#N)ccc1Oc1nnc(-c2ccc(C)cc2)c(C)c1C(=O)Nc1cccc([S@](C)(=N)=O)c1 [Compound 1529, 3-(4-cyano-2-methoxyphenoxy)-N-{3-[(R)-imino(methyl)oxo-λ6-sulfanyl]phenyl}-5-methyl-6-(4-methylphenyl)pyridazine-4-carboxamide] | ≤ 20 | ≤ 20
COc1c(Oc2nnc(C(F)(F)F)c(C)c2C(=O)Nc2ccn3nnnc3c2)ccc(F)c1F [Compound 1551, 3-(3,4-difluoro-2-methoxy-phenoxy)-5-methyl-N-(tetrazolo[1,5-a]pyridin-7-yl)-6-(trifluoromethyl)pyridazine-4-carboxamide] | ≤ 20 | ≤ 20
Cc1cc(F)ccc1Oc1nnc(C(F)(F)F)c(C2CC2)c1C(=O)Nc1cccc([S@@](C)(=N)=O)c1 [Compound 1519, (S)-5-cyclopropyl-3-(4-fluoro-2-methylphenoxy)-N-(3-(S-methylsulfonimidoyl)phenyl)-6-(trifluoromethyl)pyridazine-4-carboxamide] | 20 to 40 | 20 to 40
COc1nc(Br)ccc1Oc1ncc(C(F)(F)F)cc1C(=O)Nc1cccc(S(C)(=O)=O)c1 [Compound 1603] | ≤ 20 | ≤ 20
CS(=N)(=O)c1cccc(NC(=O)c2cc(C(F)(F)F)cnc2OC2CC(C#N)C2)c1 (stereo not shown) [Compound 1665] | 200 to 500 | 200 to 500
Cc1nc(OC2CCC2)ccc1Oc1ncc(C(F)(F)F)cc1C(=O)Nc1cccc(S(C)(=N)=O)c1 (stereo not shown) [Compound 1669] | 40 to 200 | 40 to 200
Cc1ccc(Oc2nnc(C(F)(F)F)c(C)c2C(=O)Nc2cccc(S(C)(=N)=O)c2)c(C)n1 (single isomer, unassigned) [Compound 1484, 3-[(2,6-dimethylpyridin-3-yl)oxy]-N-{3-[imino(methyl)oxo-λ^6-sulfanyl]phenyl}-5-methyl-6-(trifluoromethyl)pyridazine-4-carboxamide] | 200 to 500 | 200 to 500
